Measured values from ChEMBL document CHEMBL6127139, “Lysine-Targeted Covalent Inhibitors of PI3Kδ Synthesis and Screening by In Situ Interaction Upgradation” (J Med Chem, 2024).
pIC50, pKi: −log10 of the molar value. Calls of active or inactive are those of the source. No cut-off for these calls is given here.

How the values were obtained:
[1] = target: Phosphatidylinositol 4,5-bisphosphate 3-kinase catalytic subunit alpha isoform (Homo sapiens, UniProt P42336); assay: Inhibition of recombinant PI3Kalpha (unknown origin) using PIP2:3PS as substrate preincubated for 20 mins followed by ATP addition and measured after 1 hrs by ADP-Glo reagent based assay
Sequence of Phosphatidylinositol 4,5-bisphosphate 3-kinase catalytic subunit alpha isoform (P42336 whole entry, canonical isoform): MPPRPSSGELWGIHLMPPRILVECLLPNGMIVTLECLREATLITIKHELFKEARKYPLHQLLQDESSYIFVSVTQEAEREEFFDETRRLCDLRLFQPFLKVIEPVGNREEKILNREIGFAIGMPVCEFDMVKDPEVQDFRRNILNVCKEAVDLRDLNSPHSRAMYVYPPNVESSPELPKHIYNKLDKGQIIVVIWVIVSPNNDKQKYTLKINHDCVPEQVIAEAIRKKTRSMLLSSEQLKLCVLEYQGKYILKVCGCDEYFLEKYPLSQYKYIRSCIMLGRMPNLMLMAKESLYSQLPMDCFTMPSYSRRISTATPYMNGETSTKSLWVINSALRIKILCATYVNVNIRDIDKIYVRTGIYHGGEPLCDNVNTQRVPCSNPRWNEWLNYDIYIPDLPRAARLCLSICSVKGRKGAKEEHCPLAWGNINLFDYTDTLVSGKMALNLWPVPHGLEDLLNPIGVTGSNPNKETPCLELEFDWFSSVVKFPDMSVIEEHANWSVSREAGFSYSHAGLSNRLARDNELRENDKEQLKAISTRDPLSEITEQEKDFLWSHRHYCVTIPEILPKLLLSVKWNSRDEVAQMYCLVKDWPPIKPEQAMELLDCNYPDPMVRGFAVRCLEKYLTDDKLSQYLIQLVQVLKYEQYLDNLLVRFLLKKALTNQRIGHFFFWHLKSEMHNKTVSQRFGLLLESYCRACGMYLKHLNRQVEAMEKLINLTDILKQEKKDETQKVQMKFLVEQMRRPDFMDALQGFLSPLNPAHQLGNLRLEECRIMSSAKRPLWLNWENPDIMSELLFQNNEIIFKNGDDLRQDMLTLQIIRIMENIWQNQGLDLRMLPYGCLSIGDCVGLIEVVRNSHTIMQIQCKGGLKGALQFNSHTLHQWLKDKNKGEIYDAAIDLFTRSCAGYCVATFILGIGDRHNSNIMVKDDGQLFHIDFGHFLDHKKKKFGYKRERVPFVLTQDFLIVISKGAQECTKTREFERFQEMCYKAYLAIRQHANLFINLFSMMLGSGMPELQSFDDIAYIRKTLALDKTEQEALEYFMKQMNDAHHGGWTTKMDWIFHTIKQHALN

[2] = Selectivity index, ratio of IC50 for inhibition of recombinant PI3Kgamma (unknown origin) using PIP2:3PS as substrate to IC50 for inhibition of recombinant PI3Kdelta (unknown origin) using PIP2:3PS as substrate
[3] = system: SU-DHL-6; assay: Induction of apoptosis in human SU-DHL-6 cells assessed as late apoptotic cells at 0.1 uM incubated for 48 hrs by Annexin V-FITC/PI staining based flow cytometric analysis (reference value: 4.12 %); assay type: functional
[4] = system: SU-DHL-6; assay: Induction of apoptosis in human SU-DHL-6 cells assessed as necrotic cells at 0.1 uM incubated for 48 hrs by Annexin V-FITC/PI staining based flow cytometric analysis (reference value: 1.05 %); assay type: functional
[5] = system: SU-DHL-6; assay: Irreversible inhibition of AKT phosphorylation in human SU-DHL-6 cells preincubated for 12 hrs followed by compound washout and measured upto 72 hrs by Western blot analysis; assay type: cell-based
[6] = system: SU-DHL-6; assay: Induction of apoptosis in human SU-DHL-6 cells assessed as late apoptotic cells at 0.01 uM incubated for 48 hrs by Annexin V-FITC/PI staining based flow cytometric analysis (reference value: 4.12 %); assay type: functional
[7] = target: Phosphatidylinositol 4,5-bisphosphate 3-kinase catalytic subunit beta isoform (Homo sapiens, UniProt P42338); assay: Inhibition of recombinant PI3Kbeta (unknown origin) using PIP2:3PS as substrate preincubated for 20 mins followed by ATP addition and measured after 1 hrs by ADP-Glo reagent based assay
Sequence of Phosphatidylinositol 4,5-bisphosphate 3-kinase catalytic subunit beta isoform (P42338 whole entry, canonical isoform): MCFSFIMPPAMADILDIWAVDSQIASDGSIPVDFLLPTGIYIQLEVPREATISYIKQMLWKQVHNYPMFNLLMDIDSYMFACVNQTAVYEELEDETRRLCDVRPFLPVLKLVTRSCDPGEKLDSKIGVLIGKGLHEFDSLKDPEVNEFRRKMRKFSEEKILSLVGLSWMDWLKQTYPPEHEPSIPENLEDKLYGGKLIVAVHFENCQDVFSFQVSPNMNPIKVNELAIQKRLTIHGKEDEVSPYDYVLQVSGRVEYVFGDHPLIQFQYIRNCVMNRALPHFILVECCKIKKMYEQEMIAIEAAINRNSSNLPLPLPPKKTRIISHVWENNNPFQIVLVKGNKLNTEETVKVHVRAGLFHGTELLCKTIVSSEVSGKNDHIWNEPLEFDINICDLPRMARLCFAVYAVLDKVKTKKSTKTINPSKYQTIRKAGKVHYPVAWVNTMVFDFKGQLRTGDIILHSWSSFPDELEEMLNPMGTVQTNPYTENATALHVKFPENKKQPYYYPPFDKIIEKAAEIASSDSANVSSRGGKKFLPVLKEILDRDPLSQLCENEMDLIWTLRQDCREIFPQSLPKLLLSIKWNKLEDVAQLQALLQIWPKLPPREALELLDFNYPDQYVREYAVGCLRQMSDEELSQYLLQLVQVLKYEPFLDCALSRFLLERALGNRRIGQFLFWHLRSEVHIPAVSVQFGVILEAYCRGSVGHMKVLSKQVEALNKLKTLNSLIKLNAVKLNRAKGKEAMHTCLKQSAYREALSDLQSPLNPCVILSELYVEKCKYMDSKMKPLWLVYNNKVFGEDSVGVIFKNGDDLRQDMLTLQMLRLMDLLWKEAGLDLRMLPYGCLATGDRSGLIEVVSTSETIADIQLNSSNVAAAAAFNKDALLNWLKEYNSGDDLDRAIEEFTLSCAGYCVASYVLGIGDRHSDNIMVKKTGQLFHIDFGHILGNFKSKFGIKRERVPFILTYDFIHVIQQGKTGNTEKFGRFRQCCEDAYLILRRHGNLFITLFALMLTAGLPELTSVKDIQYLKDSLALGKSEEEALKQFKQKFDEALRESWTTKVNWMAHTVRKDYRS

[8] = system: SU-DHL-6; assay: Induction of apoptosis in human SU-DHL-6 cells assessed as early apoptotic cells at 0.01 uM incubated for 48 hrs by Annexin V-FITC/PI staining based flow cytometric analysis (reference value: 5.02 %); assay type: functional
[9] = system: Raji; assay: Growth inhibition of human Raji cells incubated for 72 hrs by MTT assay; assay type: functional
[10] = system: SU-DHL-6; assay: Antitumor activity against human SU-DHL-6 cells xenografted in male nude mouse assessed as reduction in Ki67 expression in tumor at 5 to 30 mg/kg/day, po administered for 14 days by immunohistochemical staining based analysis; assay type: functional, organism-based; details: dose 5-30 mg/kg/day, time 14.0 day
[11] = target: T1, Phosphatidylinositol 4,5-bisphosphate 3-kinase catalytic subunit delta isoform (Homo sapiens, UniProt O00329); assay: Inhibition of recombinant PI3Kdelta (unknown origin) using PIP2:3PS as substrate preincubated for 20 mins followed by ATP addition and measured after 1 hrs by ADP-Glo reagent based assay
T1 sequence (O00329 whole entry): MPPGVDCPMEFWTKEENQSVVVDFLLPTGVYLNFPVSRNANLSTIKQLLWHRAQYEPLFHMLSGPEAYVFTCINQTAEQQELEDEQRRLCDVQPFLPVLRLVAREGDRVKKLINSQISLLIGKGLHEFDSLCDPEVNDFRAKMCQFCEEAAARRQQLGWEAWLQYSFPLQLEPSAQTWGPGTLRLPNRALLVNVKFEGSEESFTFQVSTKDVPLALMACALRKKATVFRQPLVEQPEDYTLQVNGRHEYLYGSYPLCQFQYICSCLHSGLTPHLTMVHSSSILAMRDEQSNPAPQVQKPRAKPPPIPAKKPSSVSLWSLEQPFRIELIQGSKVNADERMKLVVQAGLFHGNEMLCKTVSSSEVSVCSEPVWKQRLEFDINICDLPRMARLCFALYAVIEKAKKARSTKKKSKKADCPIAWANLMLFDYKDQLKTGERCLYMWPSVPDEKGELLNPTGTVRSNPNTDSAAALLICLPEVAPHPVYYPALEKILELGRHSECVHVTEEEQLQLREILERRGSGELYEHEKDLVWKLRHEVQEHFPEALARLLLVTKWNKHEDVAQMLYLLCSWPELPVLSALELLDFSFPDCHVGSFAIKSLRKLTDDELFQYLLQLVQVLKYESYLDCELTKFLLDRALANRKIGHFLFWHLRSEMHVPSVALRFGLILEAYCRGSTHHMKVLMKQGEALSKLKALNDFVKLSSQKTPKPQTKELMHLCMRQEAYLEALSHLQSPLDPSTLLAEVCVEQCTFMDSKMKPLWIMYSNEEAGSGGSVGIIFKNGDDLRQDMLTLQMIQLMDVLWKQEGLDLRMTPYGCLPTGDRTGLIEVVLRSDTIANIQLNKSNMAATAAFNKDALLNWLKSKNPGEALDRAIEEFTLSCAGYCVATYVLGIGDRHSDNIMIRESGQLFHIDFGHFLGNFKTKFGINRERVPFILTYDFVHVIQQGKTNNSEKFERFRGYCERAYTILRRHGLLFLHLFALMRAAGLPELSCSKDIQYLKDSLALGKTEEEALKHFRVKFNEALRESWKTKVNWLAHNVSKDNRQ

[12] = target: T1, Phosphatidylinositol 4,5-bisphosphate 3-kinase catalytic subunit delta isoform; assay: Covalent inhibition of PI3Kdelta (unknown origin) using PIP2:3PS as substrate assessed as inhibition constant incubated upto 180 mins in presence of ATP by ADP-Glo reagent based assay
[13] = Selectivity index, ratio of IC50 for inhibition of recombinant PI3Kbeta (unknown origin) using PIP2:3PS as substrate to IC50 for inhibition of recombinant PI3Kdelta (unknown origin) using PIP2:3PS as substrate
[14] = target: T2, Phosphatidylinositol 4,5-bisphosphate 3-kinase catalytic subunit delta isoform (Homo sapiens) (UniProt O00329); assay: Covalent inhibition of PI3Kdelta (unknown origin) using PIP2:3PS as substrate assessed as second order rate constant (Kinact/Ki ratio) incubated upto 180 mins in presence of ATP by ADP-Glo reagent based assay
T2 sequence (whole entry): T1 sequence (O00329 whole entry)

[15] = target: T2, Phosphatidylinositol 4,5-bisphosphate 3-kinase catalytic subunit delta isoform (Homo sapiens); assay: Potency index, ratio of idelalisib IC50 to test compound IC50 for inhibition of recombinant PI3Kdelta (unknown origin) using PIP2:3PS as substrate preincubated for 20 mins followed by ATP addition and measured after 1 hrs by ADP-Glo reagent based assay; details: time 80.0 min
[16] = system: SU-DHL-6; assay: Induction of apoptosis in human SU-DHL-6 cells assessed as viable cells at 0.01 uM incubated for 48 hrs by Annexin V-FITC/PI staining based flow cytometric analysis (reference value: 89.81 %); assay type: functional; details: read-out: Activity
[17] = system: MCF7; assay: Growth inhibition of human MCF7 cells incubated for 72 hrs by MTT assay; assay type: functional
[18] = system: SU-DHL-6; assay: Irreversible inhibition of AKT phosphorylation in human SU-DHL-6 cells preincubated for 12 hrs followed by compound washout and measured after 24 hrs by Western blot analysis; assay type: cell-based
[19] = Stability of compound in PBS at pH 7.4 incubated for 24 hrs at 37 degreeC by HPLC analysis; assay type: physicochemical; details: buffer, pH 7.4, 24 h
[20] = Growth inhibition of PI3Kdelta-overexpressing human Pfeiffer cells incubated for 72 hrs by MTT assay; assay type: functional
[21] = system: Mus musculus; assay: In vivo inhibition of PI3K signaling pathway in male nude mouse xenografted with human SU-DHL-6 cells assessed as reduction in AKT phosphorylation in tumor at 5 to 30 mg/kg/day, po administered for 14 days by Western blot analysis; assay type: functional, organism-based; details: dose 5-30 mg/kg/day, time 14.0 day
[22] = Selectivity ratio of GI50 for human HCT-116 cells to GI50 for PI3Kdelta overexpressing human SU-DHL-6; assay type: functional

For `COc1ncc(-c2ccc3ncnc(N[C@H]4CCN(C(=O)C5CCOCC5)C4)c3n2)cc1C(=O)Oc1ccccc1`, the pIC50 [1] was 6.21, the Ratio IC50 [2] was 359 and the Activity [3] was 15.06%. For the same compound, the Activity [4] was 0.92%, the inhibition [5] was “Active” and the Activity [6] was 4.19%. For the same compound, the pIC50 [7] was 6.69, the Activity [8] was 10.3% and the GI50 [9] was 5.39 µM. For the same compound, the Activity [10] was “Active”, the pIC50 [11] was 9.57 and the pKi [12] was 8.73. For the same compound, the Ratio IC50 [13] was 753, the Ratio [14] was 1.76 10^5/M/s and the Ratio IC50 [15] was 10. The viability at 0.01 µM [16] was 85%, the GI50 [17] was greater than 10 µM and the inhibition [18] was “Active”. For the same compound, the Stability [19] was “Stable”, the GI50 [20] was 0.102 µM and the inhibition [21] was “Active”. The RatioGI50 [22] was 2500.
